The subject of data set [1] is CWR22Rv1 cells or VCaP cells. The experiment in a line: Xenograft tumor growth in SCID mice. Type of data set: in vivo, Male SCID mice. As to conditions: 5 or 30 mg/kg, IP, BID. As for the experimental part:
Mice: Male SCID mice (CB17/Icr-Prkdcscid/IcrIcoCrlBltw, 4-6 weeks old, purchased from BioLASCO Taiwan Co., Ilan, Taiwan.)
The cells were harvested when CWR22Rv1 cells or VCaP cells were cultured to exponential growth phase, and then the cells were washed twice with PBS. Then, for CWR22Rv1 cells, 5×10^6 cells were suspended in 100 μL PBS containing 33% Matrigel to form a cell suspension; for VCaP cells, 3×10^6 cells were suspended in 100 μL PBS containing 50% Matrigel to form a cell suspension cell suspension. Then, the above cell suspension was subcutaneously implanted into the right back of male SCID mice with a 25G needle.
After cell inoculation, when the average tumor volume reached […] or the tumor clearly began to grow, the mice were divided into a vehicle-treated group (n=4-8), 5 mg/kg Compound 1 treated group (n=4-8) and 30 mg/kg Compound 1 treatment group (n=4-8), and administered by intraperitoneal injection (IP), twice daily (BID). The vehicle was 10% N-methylpyrrolidone (NMP, N-Methyl-2-pyrrolidone) and 20% castor oil polyoxyethylene ether (Cremophor EL) in PBS buffer solution. Tumor volume and animal body weight were determined three times a week after dosing.
Tumor size was measured with a caliper and converted to tumor volume (cm^3; V) using the formula: V=0.5×[Length×(Width)^2]
Antitumor activity was expressed as tumor growth inhibition (TGI). […]

For data set [2], the system named is full-length androgen receptor. The experiment in a line: Western blot: degradation of full-length androgen receptor in CWR22RV1 cells. Type of data set: cell-based. The conditions noted are these: overnight. The gist of the method: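 CWR22Rv1 cells (5×10^5 per well) seeded overnight in RPMI with 10% FBS at 37 °C, 5% CO2, then given fresh medium and compound at various concentrations overnight. Lysates analysed by Western blot for full-length AR and AR-V7, with GAPDH as loading control.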

The test system of data set [3] is VCaP cells. The experiment in a line: Cytotoxicity assay (AlamarBlue, 72 hours). Type of data set: cell-based. As to conditions: 72 hours treatment, concentration not given. The gist of the method: (§1)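 CWR22Rv1 or VCaP cells in RPMI-1640 with 10% FBS were seeded at 1×10^4 cells/well. Next day they were treated with compound, test samples at 100, 10, 1 and 0.1 μM, giving 1% DMSO final. After 72 h, AlamarBlue was added for 4 h, fluorescence was read at Ex/Em 560/590 nm, and % cytotoxicity was calculated.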
A general note: Resazurin is reduced to fluorescent resorufin, in cell work by metabolically active cells.

In data set [4] the test system is CWR22RV1 cells. The experiment in a line: Cytotoxicity assay (AlamarBlue, 72 hours). As to conditions: 72 hours treatment, concentration not given. Type of data set: cell-based. The gist of the method:
as §1

Setting [5] is: compound concentration 0.1 (unit not given).
Setting [6] is: compound concentration 1 (unit not given).
Setting [7] is: compound concentration 10 (unit not given).

Consider `Cc1ncsc1-c1ccc(CNC(=O)[C@@H]2C[C@H](O)CN2C(=O)[C@@H](NC(=O)COCCCCOc2ccc(C3CCN(C4=Nn5c(nnc5C(F)(F)F)CC4)CC3)cc2)C(C)(C)C)cc1` [Compound 1, (2S,4S)-1-((S)-3,3-dimethyl-2-(2-(4-(4-(1-(3-(trifluoromethyl)-7,8-dihydro-[1,2,4]triazolo[4,3-b]pyridazin-6-yl)piperidin-4-yl)phenoxy)butoxy)acetamido)butanoyl)-4-hydroxy-N-(4-(4-methylthiazol-5-yl)benzyl)pyrrolidine-2-carboxamide], for which the “Increase in tumor size compared to vehicle treatment” value in data set [1] is on record as “tends to slow down”. Moreover, the entries for the “Degradation ability for full-length androgen receptor (residual rate %)” value in data set [2] (setting [5]), in data set [2] (setting [6]) and in data set [2] (setting [7]) were “+ (60-80%: +)”, “+ (60-80%: +)” and “+++ (<40%: +++)”, respectively. The “Cytotoxicity, VCaP cells (cell viability %)” value in data set [3] is recorded as “+++ (<40% : +++)”. The “Cytotoxicity, CWR22RV1 cells (cell viability %)” value in data set [4] is listed as “+++ (<40% : +++)”.
`O=C1CCC(N2C(=O)c3cccc(N4CCN(c5ccc(C(=O)N[C@H]6CC[C@H](Oc7ccc8nnc(C(F)(F)F)n8n7)CC6)cn5)CC4)c3C2=O)C(=O)N1` (stereo partly shown) [Compound 47, 6-(4-(2-(2,6-dioxopiperidin-3-yl)-1,3-dioxoisoindolin-4-yl)piperazin-1-yl)-N-((1r,4r)-4-((3-(trifluoromethyl)-[1,2,4]triazolo[4,3-b]pyridazin-6-yl)oxy)cyclohexyl)nicotinamide]: the “Degradation ability for full-length androgen receptor (residual rate %)” value in data set [2] (setting [5]) is “++ (40-60%: ++)”; in data set [2] (setting [6]), “+++ (<40%: +++)”; in data set [2] (setting [7]) it was “+ (60-80%: +)”. For the same compound, in data set [3], the “Cytotoxicity, VCaP cells (cell viability %)” value is “++ (40-60% : ++)”. Also, the “Cytotoxicity, CWR22RV1 cells (cell viability %)” value in data set [4] is reported as “− (<80% : −)”.
In the same order, the values of `O=C1CCC(N2C(=O)c3cccc(NCC(=O)N4CCC(N5CCC(C#Cc6ccc(C(=O)Nc7ccc(C8CCN(C9=Nn%10c(nnc%10C(F)(F)F)CC9)CC8)cc7)nc6)CC5)CC4)c3C2=O)C(=O)N1` (stereo not shown) [Compound 51, 5-((1′-((2-(2,6-dioxopiperidin-3-yl)-1,3-dioxoisoindolin-4-yl)glycyl)-[1,4′-bipiperidin]-4-yl)ethynyl)-N-(4-(1-(3-(trifluoromethyl)-7,8-dihydro-[1,2,4]triazolo[4,3-b]pyridazin-6-yl)piperidin-4-yl)phenyl)picolinamide] are “− (>80%; −)”, “− (>80%; −)”, “+ (60-80%: +)”, “+++ (<40% : +++)” and “+++ (<40% : +++)”.

These data come from patent US12152035B2, “Androgen receptor binding molecule and use thereof” (Industrial Technology Research Institute, priority 2020, dated 2024).
